Experimental data as given in PubChem BioAssay (NCI).
Where “and” joins values, the source holds several entries; their conditions need not be identical. Equal entries are not always repeated.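 Growth conditions: 96-well plates. Treatment: test compound, 48 hours, 5 concentrations. Analysis: linear interpolation between bracketing concentrations; unreached endpoints set to highest concentration. Here, GI50 denotes the concentration required for 50% inhibition of growth. TGI marks complete inhibition of growth.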

Experiments:
Assay in all cases: growth of human tumour cells (NCI), 48 h
SK-MEL-5 melanoma = system: SK-MEL-5 melanoma
UACC-257 melanoma = system: UACC-257 melanoma
TK-10 renal = system: TK-10 renal
PC-3 prostate = system: PC-3 prostate
CCRF-CEM leukemia = system: CCRF-CEM leukemia
RXF 393 renal = system: RXF 393 renal
HOP-92 NSCLC = system: HOP-92 NSCLC
COLO 205 colon = system: COLO 205 colon
LOX IMVI melanoma = system: LOX IMVI melanoma
MOLT-4 leukemia = system: MOLT-4 leukemia

Structure (SMILES) | GI50 (SK-MEL-5 melanoma) | TGI (SK-MEL-5 melanoma) | GI50 (UACC-257 melanoma) | TGI (UACC-257 melanoma) | GI50 (TK-10 renal) | TGI (TK-10 renal) | GI50 (PC-3 prostate) | TGI (PC-3 prostate) | GI50 (CCRF-CEM leukemia) | TGI (CCRF-CEM leukemia) [µM] | GI50 (RXF 393 renal) | TGI (RXF 393 renal) | GI50 (HOP-92 NSCLC) | TGI (HOP-92 NSCLC) | GI50 (COLO 205 colon) | TGI (COLO 205 colon) | GI50 (LOX IMVI melanoma) | TGI (LOX IMVI melanoma) | GI50 (MOLT-4 leukemia) | TGI (MOLT-4 leukemia)
CN(/N=N/c1nc(OCc2ccccc2)c2[nH]cnc2n1)C(=O)N(C)/N=N/c1nc(OCc2ccccc2)c2[nH]cnc2n1 | 20.9 µM | 61.5 µM | 54.7 µM | > 100 µM | 27.2 µM | > 100 µM | 40.5 µM | > 100 µM | 49.6 µM | > 100 | 79.9 µM | > 100 µM | 29.9 µM | > 100 µM | 37.5 µM | > 100 µM | 37 µM | > 100 µM | 53.1 µM | > 100 µM
CCN(CC)CCCC(C)Nc1cnc(C(=O)Nc2cc(F)cc3cccnc23)cn1 (stereo not given) | 1.78 µM and 1.58 µM | 3.37 µM and 2.95 µM | 1.99 µM and 0.563 µM | 4.13 µM and 1.94 µM | 10.4 µM and 1.54 µM | 22.4 µM and 3.12 µM | 3.55 µM and 0.614 µM | 15.3 µM and 2.24 µM | 2.55 µM and 0.478 µM | 10.6 | 4.26 µM and 1.32 µM | 16.9 µM and 2.69 µM | 2.43 µM and 1.19 µM | 14.5 µM and 2.62 µM | 1.16 µM and 0.461 µM | 3.57 µM and 2.16 µM | 3.32 µM and 0.882 µM | 11.3 µM and 2.28 µM | 1.94 µM and 0.496 µM | 6.53 µM and > 43 µM
Fc1ccc(-c2nnc3sc(-c4cccc(Cl)c4)nn23)cc1Cl | > 100 µM | > 100 µM | > 100 µM | > 100 µM | > 100 µM | > 100 µM | > 100 µM | > 100 µM | > 100 µM | > 100 | 39.5 µM | > 100 µM | 33.7 µM | 89.6 µM | > 100 µM | > 100 µM | > 100 µM | > 100 µM | > 100 µM | > 100 µM
Cc1cc2c(C(N)=O)cccc2n1-c1nc2c(c(NCc3ccccc3)n1)CCCN2 | 0.0598 µM | 0.181 µM | 0.167 µM | 0.347 µM | 0.378 µM | 0.809 µM | 0.287 µM | 0.825 µM | 0.295 µM | 19.8 | 0.126 µM | 0.273 µM | 0.261 µM | 0.541 µM | 0.195 µM | 0.364 µM | 0.0517 µM | 0.206 µM | 0.241 µM | 1.16 µM
COc1cc(-c2cn(-c3ccc(Cl)cc3)c(=O)[nH]2)cc(OC)c1OC | > 100 µM | > 100 µM | > 100 µM | > 100 µM | > 100 µM | > 100 µM | > 100 µM | > 100 µM | > 100 µM | > 100 | > 100 µM | > 100 µM | > 100 µM | > 100 µM | > 100 µM | > 100 µM | > 100 µM | > 100 µM | 0.0199 µM | 8.86 µM
COc1ccc(/C=C(\C#N)c2cc(OC)c3c(c2)OCO3)cc1 | 0.0101 µM | 0.245 µM | 17 µM | 57 µM | 0.56 µM | 41.1 µM | 0.0101 µM | 38.1 µM | 0.0226 µM | > 100 | < 0.01 µM | 30.6 µM | 8.09 µM | 52.2 µM | < 0.0124 µM | 0.0521 µM | 0.0271 µM | > 100 µM | 0.0402 µM | > 100 µM
c1cncc(CNc2ccccc2-c2nnc(Nc3ccc4c(c3)OCCO4)o2)c1 | 0.0721 µM | 2.03 µM | 11.6 µM | > 100 µM | 17 µM | > 100 µM | 0.128 µM | > 100 µM | 0.126 µM | 51.4 | 0.0343 µM | 0.251 µM | 0.222 µM | 20 µM | 0.146 µM | 0.817 µM | 0.183 µM | > 100 µM | 0.435 µM | 15.5 µM
Cc1nn2c(/C=C3/C(=O)Nc4ccc(Cl)cc43)c(-c3ccccc3)nc2s1 | 4.07 µM | 23.2 µM | 3.11 µM | 11.1 µM | 3.3 µM | 8.79 µM | 1.79 µM | 5.37 µM | 4.06 µM | 23.7 | 1.91 µM | 4.71 µM | 0.58 µM | 3.06 µM | 3.9 µM | 13.5 µM | 3.52 µM | 14.8 µM | 6.96 µM | 37.1 µM
CN1CCN(Cc2ccc(NC(=O)c3[nH]ncc3Nc3ncnc4c3CCC4)cc2)CC1 | 0.874 µM | 13.3 µM | 3.49 µM | 15.4 µM | 4.02 µM | 8.85 µM | 1.96 µM | 12.1 µM | 0.611 µM | 11 | 1.4 µM | 3.23 µM | 4.43 µM | 8.33 µM | 0.475 µM | 2.25 µM | 0.817 µM | 3.1 µM | 0.447 µM | 3 µM
